Consider 5 compounds from PMC2742655 (Bioorganic & medicinal chemistry letters, 2009).

One assay concerns the target T1, falcipain-2 (FP-2) (Plasmodium falciparum, UniProt Q8I6U4).
T1 sequence (Q8I6U4 244-484): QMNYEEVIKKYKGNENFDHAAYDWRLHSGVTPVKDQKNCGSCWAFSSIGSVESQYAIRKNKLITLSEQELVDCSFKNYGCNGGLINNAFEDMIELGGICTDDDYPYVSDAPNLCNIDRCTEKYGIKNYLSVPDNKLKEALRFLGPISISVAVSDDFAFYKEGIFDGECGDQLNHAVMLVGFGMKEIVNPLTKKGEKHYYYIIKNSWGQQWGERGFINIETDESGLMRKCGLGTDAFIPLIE
The class given is biochemical. To be noted: ratio 6d:12d:5, relative to 5 = 1.

For assay [1], the system named is P. falciparum trophozoites (food vacuole). To be noted: parasites incubated with compound; cited from earlier work.
In assay [2] the test system is P. falciparum FCR3 (atovaquone resistant). In words: Antiplasmodial activity, FCR3 strain. In kind it is cell-based. As to conditions: Plasmodium falciparum, FCR3, read-out: IC50 FCR3.
For assay [3], the system named is P. falciparum 3D7 (chloroquine-sensitive). In words: Antiplasmodial activity, 3D7 strain. The class given is cell-based. As to conditions: Plasmodium falciparum, 3D7, read-out: IC50 3D7.
The subject of assay [4] is P. falciparum V1/S (chloroquine and pyrimethamine resistant). In words: microbe, parasite or virus in culture. In kind it is cell-based. As to conditions: Plasmodium falciparum, read-out: IC50 VI/S.
Assay [5] has as its system P. falciparum D6 (chloroquine sensitive, mefloquine resistant). The assay can be described thus: Antiplasmodial activity, D6 strain. The class given is cell-based. As to conditions: Plasmodium falciparum, D6, read-out: IC50 D6.
Assay [6] has as its system P. falciparum W2 strain (chloroquine-resistant). The assay can be described thus: Antiplasmodial activity, growth of P. falciparum W2 strain. In kind it is cell-based. As to conditions: Plasmodium falciparum, W2, read-out: IC50 W2.

For `CC(C)C[C@H](NC(=O)OC(C)(C)C)C(=O)N[C@H](/C=C/S(=O)(=O)c1ccccc1)CCc1ccccc1` [Compound 12d], the “IC50 ratio for FP-2 inhibition” value on falcipain-2 (FP-2) is 70.

With `CC(C)C[C@H](NC(=O)[C@H]1O[C@@H]1C(=O)O)C(=O)NCCCCN=C(N)N` [Compound E64, E64], the “swollen food vacuole abnormality (block in hemoglobin hydrolysis)” value in assay [1] is listed as “observed”.

In the case of `CC(C)C[C@H](NC(=O)c1ccc(CO[C@H]2O[C@@H]3O[C@@]4(C)CC[C@H]5[C@H](C)CC[C@@H]([C@H]2C)[C@@]35OO4)cc1)C(=O)N[C@H](/C=C/S(=O)(=O)c1ccccc1)CCc1ccccc1` [Compound 6d], on falcipain-2 (FP-2), the “IC50 ratio for FP-2 inhibition” value is 1650.

For the compound `CC(C)C[C@H](NC(=O)N1CCOCC1)C(=O)N[C@H](/C=C/S(=O)(=O)c1ccccc1)CCc1ccccc1` [Compound 5, Mu-Leu-hPhe-VSPh], on falcipain-2 (FP-2), the “IC50 ratio for FP-2 inhibition” value is recorded as 1.

Consider `CCN(CC)CCCC(C)Nc1ccnc2cc(Cl)ccc12` (stereo not drawn) [Chloroquine], for which the IC50 in assay [2] turned out to be 0.0511 ± 0.0001 µM; in assay [3], 0.0116 ± 0.0011 µM; in assay [4], 0.065 ± 0.0041 µM; in assay [5] it was 0.0169 ± 0.0021 µM; in assay [6] it was 0.0781 ± 0.00691 µM.
